Data as given in PMC12097374 (Bioconjugate chemistry, 2017).

Tests used:
[1] = system: C6 rat glioma cells; experiment: Confocal cell imaging and displacement in live C6 rat glioma cells; format: cell-based; conditions: 0.1 μM probe 29, 100-fold higher concentration (10 μM) of competitor
[2] = molecular target: TSPO (Rattus norvegicus, UniProt P16257); conditions: cited from earlier work

| SMILES | displacement of fluorescent probe 29 in C6 glioma cells [1] | fold enhancement in affinity compared with DPA-714 [2] [fold] |
| --- | --- | --- |
| CCC(C)N(C)C(=O)c1cc2ccccc2c(-c2ccccc2Cl)n1 (stereo not drawn) [PK 11195] | completely displaced | – |
| CCc1cc(CC)n2nc(-c3ccc(OCCF)cc3)c(CC(=O)N(CC)CC)c2n1 [VUIIS 1008, 2-(5,7-diethyl-2-(4-(2-fluoroethoxy)phenyl)-pyrazolo[1,5-a]pyrimidin-3-yl)-N,N-diethylacetamide] | completely displaced | 36 |
